Measured values as given in patent US10391084B2, “Methods and compositions to treat cancer” (CHILDREN'S HOSPITAL MEDICAL CENTER, priority 2013, dated 2019).

Tests used:
NHLF cells = test: Flow cytometric analysis for apoptosis (sub-G0/G1 DNA content), NHLF; assay type: cell-based, human; conditions: DMSO control 0.32%
Method: (§1) Flow cytometric analysis for apoptosis: cells were plated in 24-well plates at a density of 0.5×10^5 cells per well 1 day before the treatments. After 72 hours, cells were harvested and washed once with PBS. Cells were resuspended in PBS containing 0.2% Triton X-100 and 1 mg/ml RNase for 5 min at room temperature and then stained with propidium iodide at 50 μg/ml to determine sub-G0/G1 DNA content using a FACScan. Doublets, cell debris, and fixation artifacts were gated out, and sub-G0/G1 DNA content was determined using Cell Quest Ver. 3.3 software.

BAD = test: Immunoblot of BAD in H441 cells; assay type: cell-based, human; conditions: H441, dose- and time-dependent
Method: (§2) Immunoblot analysis: cells were lysed in ice-cold lysis buffer [1% Triton X-100, 20 mM Tris-HCl (pH 8.0), 137 mM NaCl, 10% glycerol (v/v), 2 mM EDTA, 1 mM sodium orthovanadate (v/v), 1 mM phenylmethylsulfonyl fluoride]. Cell lysates were clarified by centrifugation (10 min at 15,000×g at 4° C.) and protein concentration determined using the BCA protein assay (Thermo Fisher Scientific, Rockford, Ill.). Equal amounts of protein were separated on an SDS-PAGE gel. The gel was electrophoretically transferred to a Hybond PVDF transfer membrane (Amersham, Arlington Heights, Ill.) and incubated with primary and secondary antibodies according to the Supersignal® West Pico chemiluminescence protocol (Pierce, Rockford, Ill.). Antibody specific for β-actin antibody was obtained from Sigma (St. Louis, Mo.) and antibody specific for human MDK was obtained from Abcam (Cambridge, UK). Antibody specific for caspase-3, PI3 kinase p85, phosphorylated-PI3K p85 (Tyr458)/p55 (Tyr199), AKT, phosphorylated-AKT (Ser473), Bad, XIAP, survivin were obtained from Cell Signaling Technology (Beverly, Mass.). Antibody specific for VEGF was purchased from Santa Cruz Biotechnology (Santa Cruz, Calif.). Secondary horseradish peroxidase-conjugated antibodies were obtained from Jackson Immunoresearch Laboratories (West Grove, Pa.). […]

caspase-3 = test: Immunoblot of caspase-3 cleavage in H441 cells; assay type: cell-based, human; conditions: H441, even at the lowest concentrations (5 nM), 48 hours after treatment
Method: as §2

XIAP = test: Immunoblot of XIAP in H441 cells; assay type: cell-based, human; conditions: H441, dose- and time-dependent
Method: as §2

[1] = tested on: xenografts derived from H441 lung adenocarcinoma cells; test: H441 lung adenocarcinoma xenograft in nude mice; assay type: in vivo, BALB/c nude mice; conditions: 9 mg/kg intraperitoneal
Method: (§3) Mouse experiments: human lung cancer xenografts were established in 6-wk-old female BALB/c nude mice (Charles River Laboratories Japan, Kanagawa, Japan) by subcutaneous (s.c.) inoculation of H441 cells (1×10^6/50 μl) mixed with Matrigel® (BD Pharmingen, San Diego, Calif.; 50 μl) into the dorsal flank (Watanabe N, et al., Clin. Cancer Res. 2008; 14:4631-9). The mice were randomly assigned into three groups (n=8 per group) 14 days after tumor inoculations. One group of mice was intraperitonially injected with 100 μl solution containing iMDK (9 mg/kg) three days per week (on days 1, 3, 5, 8, 10) and another group of mice was injected five days per week (on days 1, 2, 3, 4, 5, 8, 9, 10). DMSO was injected into the control group. Tumors were measured two to three times a week, and tumor volume was calculated as a×b^2×0.5, where a and b were large and small diameters, respectively. On day 10, all mice were sacrificed after body weight was measured and tumors were removed and prepared for histology. For analysis of serum AST and ALT, blood was drawn from the heart 48 hours after intraperitonially injected with 100 μl solution containing iMDK (9 mg/kg). DMSO was injected into the control group and four mice were used for each group.
For immunohistochemistry, sections were sequentially deparaffinized through a series of xylene, graded ethanol, and water immersion steps. After being autoclaved in 0.2% citrate buffer for 15 minutes, sections were incubated with 3% hydrogen peroxide for 30 minutes to block endogenous peroxidase activity. A primary antibody specific for PI3 kinase p85, phosphorylated-PI3K p85 (Tyr458)/p55 (Tyr199) from Cell Signaling Technology and for MDK from Abcam were used. Specimens were incubated overnight at 4° C. with a 1:200 dilution of antibody followed by three washes with TBS. The slides were treated with streptoavidin-biotin complex (Envision System labeled polymer, horseradish peroxidase (HRP), Dako, Carpinteria, Calif.) for 60 minutes at a dilution of 1:100. […]

[2] = tested on: midkine promoter coupled to a luciferase reporter gene; test: Midkine promoter-luciferase reporter screen in stably transfected HEK293 cells, dose-response; assay type: cell-based; conditions: for EC50: Homo sapiens, HEK293 reporter cells, midkine expression upregulated with retinoic acid
Method: A library of compounds was screened for activity to reduce expression of midkine in vitro. HEK293 cells were stably transfected with the pGL4 vector comprising a midkine promoter coupled to a luciferase reporter gene. […] Changes in luciferase production were measured to access the inhibitory activity of the test compounds. The primary screen included 44,000 test compounds. Test compounds that reduced cell viability by more than 50% were eliminated from the screen. From the primary screen, 351 test compounds were further examined. From the secondary screen, 78 test compounds were examined using a dose-response assay, and the EC50 for the test compounds was determined.
In order to find a therapeutic compound that inhibits MDK expression, a MDK reporter cell line by stably transfecting HEK293 cells with a MDK promoter-fused luciferase construct was developed. This modified cell line was used to screen 44,000 compounds at the Drug Discovery Center at the University of Cincinnati. See Example 1. Detection of luciferase activity was used to identify MDK inhibitors.

AKT = test: Immunoblot of AKT phosphorylation in H441 cells; assay type: cell-based, human; conditions: H441, dose- and time-dependent
Method: as §2

[3] = tested on: H520 lung squamous cell carcinoma cells; test: Cell viability assay, trypan blue exclusion, H520; assay type: cell-based, human; conditions: H520, 0 to 500 nM, 48 hours after treatment
From the text: (§4) Cell Lines and Culture Conditions: the human pulmonary adenocarcinoma cells H322, H358, H441 and A549 and the human lung squamous cell carcinoma cells H520 were obtained from the American Type Culture Collection (Manassas, Va.) and grown in RPMI 1640 (H322, H358, H520) or high glucose Dulbecco's modified Eagle medium (H441, A549 cells) supplemented with 10% heat-inactivated fetal bovine serum. The human malignant mesothelioma cells ACC-MESO-1 (MESO-1) obtained from JCRB Cell Bank (Osaka, Japan) and the human lung squamous cell carcinoma cells SQ5 were grown in RPMI 1640 supplemented with 10% heat-inactivated fetal bovine serum. The normal human lung fibroblasts (NHLF) obtained from Clonetics (San Diego, Calif.) were grown in high glucose Dulbecco's modified Eagle medium. All cell lines were cultured in 10% CO2 at 37° C.
Cell viability assay: H441 cells, A549 cells, H520 cells, HEK293 cells and NHLF were plated in 24-well plates at a density of 1×10^5 cells and cultured at 37° C. for 24 hours. Medium was removed by aspiration and replaced with fresh culture medium containing iMDK dissolved in DMSO (10, 50, 100, 500 nmol/L). DMSO alone was used as the control. Cells were treated for 48 hours and collected by trypsinization. Viable cells were assessed by trypan blue exclusion. […]

[4] = tested on: H441 lung adenocarcinoma cells; test: Cell viability assay, trypan blue exclusion, H441; assay type: cell-based, human
From the text: as §4
The following day 100 pmol of Smart Pool MK siRNA or nontargeting siRNA (Dharmacon, Perbio Science, France) was transfected using 2 μl Lipofectamine 2000 (Invitrogen Life Technologies, Carlsbad, Calif.) according to the manufacturer's instructions. […]
Cell viability assay: H441 cells, A549 cells, H520 cells, HEK293 cells and NHLF were plated in 24-well plates at a density of 1×10^5 cells and cultured at 37° C. for 24 hours. […] Viable cells were assessed by trypan blue exclusion. […]

[5] = Systemic toxicity in mice (body weight, serum AST and ALT); assay type: in vivo, BALB/c nude mice
Method: as §3

H441 cells [6] = test: Flow cytometric analysis for apoptosis (sub-G0/G1 DNA content), H441; assay type: cell-based, human; conditions: 72 hours, DMSO control 1.24%
Method: as §1

PI3K = test: Immunoblot of PI3K phosphorylation in H441 cells; assay type: cell-based, human; conditions: H441, dose- and time-dependent
Method: as §2

[7] = tested on: HEK293 embryonic kidney cells; test: Cell viability assay, trypan blue exclusion, HEK293; assay type: cell-based; conditions: HEK293, 0 to 500 nM, 48 hours after treatment
Method: Cell viability assay: H441 cells, A549 cells, H520 cells, HEK293 cells and NHLF were plated in 24-well plates at a density of 1×10^5 cells and cultured at 37° C. for 24 hours. Medium was removed by aspiration and replaced with fresh culture medium containing iMDK dissolved in DMSO (10, 50, 100, 500 nmol/L). DMSO alone was used as the control. Cells were treated for 48 hours and collected by trypsinization. Viable cells were assessed by trypan blue exclusion. Recombinant MDK was purchased from R&D Systems (Minneapolis, Minn.) and reconstituted in water for block experiments. For MDK block experiments, H441 cells were cultured in Dulbecco's modified Eagle medium supplemented with 1% heat-inactivated fetal bovine overnight and recombinant MDK (25 nM) or/and iMDK (25 nM) was added for an additional 48 hours.

survivin = test: Immunoblot of survivin in H441 cells; assay type: cell-based, human; conditions: H441, dose- and time-dependent
Method: as §2

H441 cells [8] = test: Hoechst staining for apoptotic morphology in H441 cells; assay type: cell-based, human; conditions: H441, Hoechst 33342, 48 hours after treatment
Method: Hoechst staining: the morphologic characteristics of apoptosis were evaluated using Hoechst 33342 dye (Molecular Probes, Eugene, Oreg.), which stains DNA. Cells were incubated with 1 μg/ml Hoechst dye and then visualized under a fluorescence microscope (IX81, Olympus Medical Systems Corp., Tokyo, Japan) (Ogawa N, et al., Int. J. Cancer. 1997; 73:367-70).

[9] = 48 hours after 9 mg/kg intraperitoneal

O=c1oc2ccccc2cc1-c1cn2cc(Cc3ccc(F)cc3)sc2n1 [Example compound 2, 3-[2-(4-fluorobenzyl)imidazo[2,1-beta][1,3]thiazol-6-yl]-2H-chromen-2-one]
sub-G0G1 DNA content (NHLF cells; 10 nM): 0.52%
sub-G0G1 DNA content (NHLF cells; 25 nM): 1.51%
BAD expression (BAD): induced
cleaved forms of caspase-3 (caspase-3): induced
XIAP expression (XIAP): reduced
volume of the tumors versus control group ([1]; 3 or 5 times a week): significantly lower
lung tumor growth ([1]; 3 or 5 times a week, from 14 days after inoculation): arrested
Tunel staining, DNA fragmentation in tumors ([1]; xenograft tumors): detected DNA fragmentation
activity to reduce expression of midkine (in words) ([2]; reporter screen, dose response): exceptional activity
Phosphorylation of AKT (AKT): suppressed
cell growth [3]: dose-dependently inhibited cell growth
cell growth ([4]; H441, 0 to 500 nM, 48 hours after treatment): dose-dependently inhibited cell growth
suppression of cell growth with pretreatment of recombinant MDK ([4]; H441, recombinant MDK 25 nM, iMDK 25 nM, 48 hours): partially blocked
body weight ([5]; 9 mg/kg intraperitoneal, day 10): did not influence
serum level of ALT [5, 9]: did not influence
serum level of AST [5, 9]: did not influence
sub-G0/G1 DNA content (H441 cells [6]; H441, 10 nM): 37.00%
sub-G0/G1 DNA content (H441 cells [6]; H441, 25 nM): 60.91%
Phosphorylation of PI3K (PI3K): suppressed
cell growth [7]: dose-dependently inhibited cell growth
survivin expression (survivin): reduced
nuclear fragmentation (H441 cells [8]): induced nuclear fragmentation in a dose-dependent manner

O=c1oc2ccccc2cc1-c1cn2cc(Cc3ccc(Br)cc3)sc2n1 [Example compound 3]
EC50 [2]: 12.2 nM

O=c1oc2ccccc2cc1-c1cn2cc(Cc3ccc(Cl)cc3)sc2n1 [Example compound 1]
EC50 [2]: 14 nM

O=c1oc2ccccc2cc1-c1cn2cc(Cc3cc(Cl)ccc3Cl)sc2n1 [Example compound 4]
EC50 [2]: 15.9 nM
